Entries after “also recorded” stand apart in the source; their conditions may differ.
Columns and labels:
NSCLC cells = conditions: cited from earlier work
human NSCLC xenograph = conditions: in vivo; cited from earlier work
A549 lung tumor cells = assay: A549 non-small cell lung tumor xenografts in ovariectomized female athymic mice; type: in vivo; conditions: daily subcutaneous treatment, 5 animals per group, P<0.001
Text: FIG. 1. Growth-promoting effects of estrogen and aromatase substrate on non-small cell lung tumor xenografts in vivo. A549 lung tumor cells which express endogenous aromatase were implanted as subcutaneous xenografts in ovariectomized female athymic mice. Mice were then divided into 3 groups (5 animals per group). ▪ Animals were given daily subcutaneous treatments of the aromatase substrate androstenedione as before (see, e.g. Weinberg et al., Cancer Res 2005; 65:11287-91). […] Animals were given daily subcutaneous treatments of estradiol in a biodegradable binder as described (see, e.g. Pietras et al., Oncogene 1995; 10:2435-46). ▴ Control animals were supplemented with subcutaneous injection of vehicle alone.
In this study we examined aromatase, a key enzyme in the estrogen synthesis pathway. We hypothesized that expression of aromatase in lung cancer cells could result in a focal increase in estrogen levels and serve to promote tumor development and/or progression. […] To further assess estrogen signaling in NSCLC in vivo, we implanted A549 lung tumor cells which express endogenous aromatase in ovariectomized female athymic mice.
The protocol used for implantation of human lung tumor xenografts in nude mice was described previously (see, e.g. Weinberg et al., Cancer Res 2005; 65:11287-91; Pietras et al., Oncogene 1995; 10:2435-46). […]

[1] = exemestane cohort compared to women maintained on tamoxifen; cited from earlier work

C[C@]12CC[C@@H]3c4ccc(O)cc4C[C@@H](CCCCCCCCC[S+]([O-])CCCC(F)(F)C(F)(F)F)[C@H]3[C@@H]1CC[C@@H]2O (stereo partly shown) [Faslodex, fulvestrant]
Effect on 17β-estradiol-induced mitogenesis and gene transcription in NSCLC cells (NSCLC cells; ER antagonist): inhibited | Tumor formation in human NSCLC xenograph model (human NSCLC xenograph): inhibited

C[C@]12CCC(=O)C=C1CC[C@@H]1[C@@H]2CC[C@]2(C)C(=O)CC[C@@H]12 [androstenedione]
Growth of A549 tumors compared to control animals (A549 lung tumor cells): significantly increased; also recorded: significantly enhanced tumor growth

C[C@]12CC[C@@H]3c4ccc(O)cc4CC[C@H]3[C@@H]1CC[C@@H]2O [estradiol, 17β-estradiol]
Gene transcription in NSCLC cells (NSCLC cells; in vitro and in vivo models): stimulates | Mitogenic effect on NSCLC cells (NSCLC cells; in vitro and in vivo models): mitogenic | Growth of A549 tumors compared to control animals (A549 lung tumor cells): significantly increased

C=C1C[C@@H]2[C@H](CC[C@]3(C)C(=O)CC[C@@H]23)[C@@]2(C)C=CC(=O)C=C12 [exemestane]
Subsequent development of primary lung cancer [1]: reduction

— patent US20100331203A1, “AROMATASE EXPRESSION PREDICTS SURVIVAL IN WOMEN WITH NON-SMALL CELL LUNG CANCER” (THE REGENTS OF THE UNIVERSITY OF CALIFORNIA, priority 2007, published 2010)
